From patent US5985937A, “Use of 2,4-distributed phenol derivatives as 5-lipoxygenase inhibitors” (priority 1994, dated 1999)

Assays:
bacterial strains = assay: mutagenic activity in four bacterial strains; design: species or system bacteria
herpes simplex = assay: in vivo activity in patients with herpes simplex; design: species or system human (patients); conditions: 15 mg/day intramuscularly, a month
From the text: (§1) The 2,4-disubstituted phenol derivatives of the present invention are anti-herpetic agents in vivo, since they eliminate the symptoms of patients suffering from different types of herpes simplex (genital herpes, herpes of mouth and lips, recurrent herpes), and of patients suffering from herpes zoster. There is no relapse after leaving the treatment. The products are active both intramuscularly and topically, the first via being preferred.
A total of 25 patients with symptoms of different herpes simplex (genital, buccal or reincident) were treated with 15 mg/day of Bobel-24, intramuscularly, during a month, with the following results: with the ten patients of genital herpes simplex, the results was excellent in 7 cases, good in 2 and regular in 1; of the twelve with buccal herpes simplex it was excellent in 9 cases, good in 2 and regular in 1; of the 3 with reincident herpes it was excellent in 2 of the cases and good in 1. […] The case of genital herpes which resulted "regular" was an obese and diabetic […], and although there was an improvement there was also reincidency. Independently an test for antiviral activity in vitro resulted negative.

[1] = system: canine seborrheic dermatitis; assay: clinical trial on canine seborrheic dermatitis; type: in vivo, dog; design: key to Evolution, etiology idiopathic / Evolution, etiology demodex / Evolution, etiology follicular cyst / Evolution, etiology pyoderma / Evolution, etiology dermatomycosis / Evolution, etiology allergic to fleas / Evolution, etiology hypothyroidism / Evolution, etiology leishmaniosis: +++: very good response, clinically cured; ++: good response, marked lowering in the clinical signs; +: moderate response, improvement; -: negative response or no apparent improvement; key to Evolution, etiology dermatophytes: +++: very good response, total recovery; ++: good response, functionability recovery; +: moderate response, improvement; -: negative response or no apparent improvement
Description: The animals had been diagnosed to suffer from seborrheic dermatitis, and the diagnosis was confirmed by a biopsy. The treatment consisted of a weekly bath with a 2% Bobel-24 shampoo and evaluation of the treatment after 15 days. The efficiency of the treatment was analyzed evaluating the following therapeutic symptoms; removal of scabs and scales, greasiness reduction, sheborrheic odor reduction, relieve of the pruritus, and antiinflammatory effect. […] In view of the results the following conclusions were reached: […]

herpes zoster = assay: in vivo activity in patients with herpes zoster; design: species or system human (patients); conditions: of 21 patients; 15 mg/day intramuscular injection, a month
From the text: as §1
A total of 21 patients with clear symptoms of herpes zoster were treated with 15 mg/day of Bobel-24, via intramuscular injection, during a month. The results concerning the disappearance of the symptoms were the following: excellent in 18 cases, good in 2 cases, and regular in 1 case.

rats = assay: chronic toxicity in rats; type: in vivo, rat; conditions: 350 mg/kg.day, 6 months; hematological, biochemical, anatomy-pathological
[2] = system: lactatedehydrogenase (LDH); assay: liberation of lactatedehydrogenase (LDH) into the medium; conditions: check for cellular lysis
From the text: In order to show the 5-LO inhibiting activity of the products of the present invention, a specific test based on human polymorphonuclear leukocytes is chosen.

[3] = solubility in aqueous medium; type: physicochemical; conditions: in words
Description: Due to the insolubility of Bobel-24 in aqueous medium, it was previously dissolved in a 50% solution of lysine. An anionic sulfonated detergent was used as foaming agent, containing 10-15% tegobetaine, 20-30% texapone N-40, and water. A 2% shampoo was prepared with the following composition: 2 g Bobel-24, 12 ml of 50% aqueous solution of lysine, 48 ml of water, 40 ml of the anionic sulfonated detergent.

[4] = acute toxicity in Sprague-Dawley rats; conditions: rat, in vivo, po
[5] = weekly bath 2% shampoo, 15 days, Scotty T 4 years

Structure (SMILES): Oc1c(I)cc(I)cc1I [Bobel-24, 2,4,6-triiodophenol]
- mutagenic activity (bacterial strains): No mutagenic activity
- disappearance of the symptoms, herpes simplex overall (herpes simplex; 25 patients): clear and generalized disappearance of the symptoms
- cases with excellent result, reincident herpes (herpes simplex; of 3 patients): 2 cases
- cases with good result, reincident herpes (herpes simplex; of 3 patients): 1 cases
- cases with excellent result, genital herpes simplex (herpes simplex; of ten patients): 7 cases
- cases with good result, genital herpes simplex (herpes simplex; of ten patients): 2 cases
- cases with regular result, genital herpes simplex (herpes simplex; of ten patients, obese and diabetic patient, reincidency): 1 cases
- cases with excellent result, buccal herpes simplex (herpes simplex; of twelve patients): 9 cases
- cases with good result, buccal herpes simplex (herpes simplex; of twelve patients): 2 cases
- cases with regular result, buccal herpes simplex (herpes simplex; of twelve patients): 1 cases
- secondary or adverse effects (mucosal or skin irritation, unpleasant smells) ([1]; 2% shampoo, topical): absence of secondary or adverse effects
- scabs, greasiness, seborrheic odor, erithema and pruritus ([1]; 2% shampoo, all animals except one with dermatophytosis): a lowering of the scabs, disappearance of the greasiness and the seborrheic odor, disappearance of the erithema and the pruritus was observed
- result in idiopathic seborrheic dermatitis ([1]; 2% shampoo, improvement similar to oral therapy of corticoids): excellent
- result in secondary seborrheic dermatitis ([1]; Bobel-24 shampoo): the shampoo improves the aspect of the fur, but does not combat the ethiological agent responsible for the disease
- Evolution, etiology hypothyroidism ([1]; weekly bath 2% shampoo, 15 days, Cocker A 9 years): ++
- Evolution, etiology leishmaniosis ([1]; weekly bath 2% shampoo, 15 days, Cocker S 8 years): ++
- Evolution, etiology demodex ([1]; weekly bath 2% shampoo, 15 days, Mongrel 4 years): ++
- Evolution, etiology allergic to fleas [1, 5]: ++
- Evolution, etiology dermatophytes [1, 5]: -
- Evolution, etiology follicular cyst ([1]; weekly bath 2% shampoo, 15 days, Yorkshire 7 years): ++
- Evolution, etiology idiopathic ([1]; weekly bath 2% shampoo, 15 days, b367 Cocker A 13, b393 Cocker S 15, b394 Cocker S 12 years): +++
- Evolution, etiology pyoderma ([1]; weekly bath 2% shampoo, 15 days, b373 Pekinese 2, b396 German shepherd 10 years): ++
- Evolution, etiology dermatomycosis ([1]; weekly bath 2% shampoo, 15 days, b381 Schnauzer 3, b387 German shepherd 1 year): ++
- cases with excellent result, herpes zoster (herpes zoster): 18 cases
- cases with good result, herpes zoster (herpes zoster): 2 cases
- cases with regular result, herpes zoster (herpes zoster): 1 cases
- chronic toxicity in rats (rats): not observed
- LDH liberation into the medium [2]: cannot be attributed to cellular lysis
- solubility in aqueous medium [3]: insolubility
- LD50 [4]: 1500 mg/kg
